Measured values published in patent US20130121994A1, “TRIAZOLOPYRIDINE DERIVATIVES” (BAYER INTELLECTUAL PROPERTY GMBH, priority 2009, published 2013).

target: T1, human kinase Mps-1 (Homo sapiens, UniProt P33981); experiment: Mps-1 kinase assay (HTRF); assay type: biochemical
T1 construct: N-terminally GST-tagged human full length recombinant Mps-1 kinase; GST (N); purchased Invitrogen, Karslruhe, Germany PV4071
T1 sequence (P33981 1-857): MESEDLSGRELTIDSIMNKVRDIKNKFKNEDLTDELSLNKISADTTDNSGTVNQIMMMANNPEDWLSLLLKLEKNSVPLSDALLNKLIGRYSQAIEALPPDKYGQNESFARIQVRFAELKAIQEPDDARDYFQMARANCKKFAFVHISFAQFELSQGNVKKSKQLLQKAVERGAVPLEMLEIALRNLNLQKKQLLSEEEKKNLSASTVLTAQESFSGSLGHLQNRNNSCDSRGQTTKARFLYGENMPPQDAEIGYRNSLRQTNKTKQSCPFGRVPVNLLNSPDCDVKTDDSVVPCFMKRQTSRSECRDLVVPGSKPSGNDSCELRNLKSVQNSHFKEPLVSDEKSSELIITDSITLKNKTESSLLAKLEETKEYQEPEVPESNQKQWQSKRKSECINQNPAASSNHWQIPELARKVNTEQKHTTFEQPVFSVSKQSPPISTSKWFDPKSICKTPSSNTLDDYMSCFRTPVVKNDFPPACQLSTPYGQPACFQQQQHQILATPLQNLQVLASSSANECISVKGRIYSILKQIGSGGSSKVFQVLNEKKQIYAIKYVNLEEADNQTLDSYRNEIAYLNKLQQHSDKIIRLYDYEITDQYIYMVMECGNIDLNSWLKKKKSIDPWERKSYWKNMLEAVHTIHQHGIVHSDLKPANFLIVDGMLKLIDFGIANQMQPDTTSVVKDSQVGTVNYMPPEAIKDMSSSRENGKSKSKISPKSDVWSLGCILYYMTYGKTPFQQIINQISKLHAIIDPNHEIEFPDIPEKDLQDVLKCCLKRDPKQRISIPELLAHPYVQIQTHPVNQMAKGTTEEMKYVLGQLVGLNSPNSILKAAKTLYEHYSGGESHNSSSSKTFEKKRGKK
Protocol: The human kinase Mps-1 phosphorylates a biotinylated substrate peptide. Detection of the phosphorylated product is achieved by homogenous time-resolved fluorescence resonance energy transfer (HTRF) from Europium-labelled anti-phospho-Serine/Threonine antibody as donor to streptavidin labelled with cross-linked allophycocyanin (SA-XLent) as acceptor. Compounds are tested for their inhibition of the kinase activity.
N-terminally GST-tagged human full length recombinant Mps-1 kinase (purchased from Invitrogen, Karslruhe, Germany, cat. no PV4071) was used. As substrate for the kinase reaction a biotinylated peptide of the amino-acid sequence […] (C-terminus in amide form, purchased from Biosynthan GmbH, Berlin) was used.
The concentration of Mps-1 in the assay was adjusted to the activity of the enzyme lot and was chosen appropriate to have the assay in the linear range, typical enzyme concentrations were in the range of about 1 nM (final conc. in the 5 μl assay volume).
The resulting mixture was incubated 1 h at 22° C. to allow the binding of the phosphorylated peptide to the anti-phospho(Ser/Thr)-Europium-antibody. Subsequently the amount of phosphorylated substrate was evaluated by measurement of the resonance energy transfer from the Europium-labelled anti-phospho(Ser/Thr) antibody to the Streptavidin-XLent.

Row | SMILES | IC50 [nM]
1 | N#Cc1ccccc1Nc1nc2ccc(-c3cccc(F)c3)cn2n1 [Example 3.12, 2-{[6-(3-fluorophenyl)[1,2,4]triazolo[1,5-a]pyridin-2-yl]amino}benzonitrile] | 890
2 | COc1ccccc1-c1ccc2nc(Nc3ccccc3C#N)nn2c1 [Example 3.13, 2-{[6-(2 methoxyphenyl)[1,2,4]triazolo[1,5-a]pyridin-2-yl]amino}benzonitrile] | 1200
3 | N#Cc1ccccc1Nc1nc2ccc(-c3ccc(CO)cc3)cn2n1 [Example 3.14, 2-({6-[4-(hydroxymethyl)phen-yl][1,2,4]triazolo[1,5-a]pyridin-2-yl}amino)benzonitrile] | 770
4 | N#Cc1ccccc1Nc1nc2ccc(-c3cccc(O)c3)cn2n1 [Example 3.17, 2-{[6-(3-hydroxyphenyl)[1,2,4]triazolo[1,5-a]pyridin-2-yl]amino}benzonitrile] | 28
5 | COc1c(C)cc(-c2ccc3nc(Nc4ccccc4C#N)nn3c2)cc1C [Example 3.19, 2-{[6-(4-methoxy-3,5-dimethylphenyl)[1,2,4]triazolo[1,5-a]pyridin-2-yl]amino}benzonitrile] | 96
6 | N#Cc1ccc(-c2ccc3nc(Nc4ccccc4C#N)nn3c2)cc1 [Example 3.20, 2-{[6-(4-cyanophenyl)[1,2,4]triazolo[1,5-a]pyridin-2-yl]amino}benzonitrile] | 1500
7 | N#Cc1ccccc1Nc1nc2ccc(-c3ccc4[nH]ccc4c3)cn2n1 [Example 3.21, 2-{[6-(1H-indol-5-yl)[1,2,4]triazolo[1,5-a]pyridin-2-yl]amino}benzonitrile] | 210
8 | N#Cc1ccccc1Nc1nc2ccc(-c3ccc(N)cc3)cn2n1 [Example 4.2, 2-{[6-(4-aminophenyl)[1,2,4]triazolo[1,5-a]pyridin-2-yl]amino}benzonitrile] | 46
9 | CC(=O)Nc1ccc(-c2ccc3nc(Nc4ccccc4C#N)nn3c2)cc1 [Example 4.3, N-(4-{2-[(2-cyanophenyl)amino][1,2,4]triazolo[1,5-a]pyridin-6-yl}phenyl)acetamide] | 28
10 | COc1ccccc1Nc1nc2ccc(-c3ccc(N)cc3)cn2n1 [Example 5.2, 6-(4-aminophenyl)-N-(2-methoxyphenyl)[1,2,4]triazolo[1,5-a]pyridin-2-amine] | 72
11 | COc1ccccc1Nc1nc2ccc(-c3ccc(NC(C)=O)cc3)cn2n1 [Example 5.3, N-(4-{2-[(2-methoxyphenyl)amino][1,2,4]triazolo[1,5-a]pyridin-6-yl}phenyl)acetamide] | 76

The remaining lines, values ahead:

Row | IC50 [nM] | SMILES
12 | 220 | O=C(CCl)Nc1ccc(-c2ccc3nc(Nc4ccccc4C(F)(F)F)nn3c2)cc1 [Example 6.3, 2-chloro-N-[4-(2-{[2-(trifluoromethyl)phenyl]amino}[1,2,4]triazolo[1,5-a]pyridin-6-yl)phenyl]acetamide]
13 | 190 | COc1ccccc1Nc1nc2ccc(-c3cccc(NS(C)(=O)=O)c3)cn2n1 [Example 8.3, N-(3-{2-[(2-methoxyphenyl)amino][1,2,4]triazolo[1,5-a]pyridin-6-yl}phenyl)methanesulfonamide]
14 | 92 | COc1ccccc1Nc1nc2ccc(-c3cccc(NC(=O)NC(C)C)c3)cn2n1 [Example 8.4, 1-(3-{2-[(2-methoxyphenyl)amino][1,2,4]triazolo[1,5-a]pyridin-6-yl}phenyl)-3-propan-2-ylurea]
15 | 500 | CCOC(=O)c1cccc(-c2ccc3nc(Nc4ccccc4C#N)nn3c2)c1 [Example 9.1, ethyl 3-{2-[(2-cyanophenyl)amino][1,2,4]triazolo[1,5-a]pyridin-6-yl}benzoate]
16 | 72 | N#Cc1ccccc1Nc1nc2ccc(-c3cccc(C(=O)O)c3)cn2n1 [Example 9.2, 3-{2-[(2-cyanophenyl)amino][1,2,4]triazolo[1,5-a]pyridin-6-yl}benzoic acid]
17 | 8.8 | CC(C)NC(=O)c1cccc(-c2ccc3nc(Nc4ccccc4C#N)nn3c2)c1 [Example 9.4, 3-{2-[(2-cyanophenyl)amino][1,2,4]triazolo[1,5-a]pyridin-6-yl}-N-(propan-2-yl)benzamide]
18 | ≤ 1 | O=C(NCC(F)(F)F)c1ccc(-c2ccc3nc(Nc4cccnc4OCC(F)(F)F)nn3c2)cc1 [Example 11.001, 4-(2-{[2-(2,2,2-trifluoroethoxy)pyridin-3-yl]amino}[1,2,4]triazolo[1,5-a]-pyridin-6-yl)-N-(2,2,2-trifluoroethyl)benzamide]
19 | ≤ 1 | CC(C)(C)NC(=O)c1ccc(Nc2nc3ccc(-c4ccc(C(=O)NCC(F)(F)F)cc4)cn3n2)c(OCC(F)(F)F)c1 [Example 11.002, N-tert-butyl-3-(2,2,2-trifluoroethoxy)-4-[(6-{4-[(2,2,2-trifluoroethyl)-carbamoyl]phenyl}[1,2,4]triazolo[1,5-a]pyridin-2-yl)amino]benzamide]
20 | 3.74 | CCOc1ncccc1Nc1nc2ccc(-c3ccc(C(=O)NCC(F)(F)F)cc3)cn2n1 [Example 11.003, 4-{2-[(2-ethoxypyridin-3-yl)amino][1,2,4]triazolo[1,5-a]pyridin-6-yl}-N-(2,2,2-trifluoroethyl)benzamide]
21 | 1.01 | COc1cc(C(=O)NC(C)(C)C)ccc1Nc1nc2ccc(-c3ccc(C(=O)NCC(F)(F)F)cc3)cn2n1 [Example 11.005, N-tert-butyl-3-methoxy-4-[(6-{4-[(2,2,2-trifluoroethyl)carbamoyl]phenyl}[1,2,4]triazolo[1,5-a]pyridin-2-yl)amino]benzamide]
22 | ≤ 1 | CCNC(=O)c1ccc(Nc2nc3ccc(-c4ccc(C(=O)NCC(F)(F)F)cc4)cn3n2)c(OC)c1 [Example 11.006, N-ethyl-3-methoxy-4-[(6-{4-[(2,2,2-trifluoroethyl)carbamoyl]phenyl}[1,2,4]triazolo[1,5-a]pyridin-2-yl)amino]benzamide]
23 | ≤ 1 | CNCCN(C)C(=O)c1ccc(Nc2nc3ccc(-c4ccc(C(=O)NCC(F)(F)F)cc4)cn3n2)c(OC)c1 [Example 11.007, 3-methoxy-N-methyl-N-[2-(methylamino)ethyl]-4-[(6-{4-[(2,2,2-trifluoroethyl)carbamoyl]phenyl}[1,2,4]triazolo[1,5-a]pyridin-2-yl)amino]benzamide]
24 | 1550 | N#Cc1ccccc1Nc1nc2ccc(-c3ccc(C(=O)O)cc3)cn2n1 [Example 11.009, 4-{2-[(2-cyanophenyl)amino][1,2,4]triazolo[1,5-a]pyridin-6-yl}benzoic acid]
25 | 1.61 | N#Cc1ccccc1Nc1nc2ccc(-c3ccc(C(=O)NCC(F)(F)F)cc3)cn2n1 [Example 11.010, 4-{2-[(2-cyanophenyl)amino][1,2,4]triazolo[1,5-a]pyridin-6-yl}-N-(2,2,2-trifluoroethyl)benzamide]
26 | 8.28 | CC(C)(C)CNC(=O)c1ccc(-c2ccc3nc(Nc4ccccc4C#N)nn3c2)cc1 [Example 11.012, 4-{2-[(2-cyanophenyl)amino][1,2,4]triazolo[1,5-a]pyridin-6-yl}-N-(2,2-dimethylpropyl)benzamide]
27 | 1060 | CC(C)(C)OC(=O)c1ccc(-c2ccc3nc(Nc4ccccc4C#N)nn3c2)cc1 [Example 11.013, tert-butyl 4-{2-[(2-cyanophenyl)amino][1,2,4]triazolo[1,5-a]pyridin-6-yl}benzoate]
28 | 42.5 | CC(C)(C)NC(=O)c1ccc(-c2ccc3nc(Nc4ccccc4C#N)nn3c2)cc1 [Example 11.014, N-tert-butyl-4-{2-[(2-cyanophenyl)amino][1,2,4]triazolo[1,5-a]pyridin-6-yl}benzamide]
29 | 1.64 | CCOCCNC(=O)c1ccc(Nc2nc3ccc(-c4ccc(C(=O)NCC(F)(F)F)cc4)cn3n2)c(OC)c1 [Example 11.015, N-(2-ethoxyethyl)-3-methoxy-4-[(6-{4-[(2,2,2-trifluoroethyl)carbamoyl]phenyl}[1,2,4]triazolo [1,5-a]pyridin-2-yl)amino]benzamide]
30 | 1.29 | COc1cc(C(=O)NCC(C)(C)O)ccc1Nc1nc2ccc(-c3ccc(C(=O)NCC(F)(F)F)cc3)cn2n1 [Example 11.016, N-(2-hydroxy-2-methylpropyl)-3-methoxy-4-[(6-{4-[(2,2,2-trifluoroethyl)carbamoyl]phenyl}[1,2,4]triazolo [1,5-a]pyridin-2-yl)amino]benzamide]
